From ChEMBL document CHEMBL4842350, “Discovery of a Novel Bromodomain and Extra Terminal Domain (BET) Protein Inhibitor, I-BET282E, Suitable for Clinical Progression” (J Med Chem, 2021)
≈ marks a conversion by molar mass, not a printed value.

What was measured:
[1] = molecular target: T1, Bromodomain-containing protein 4 (Homo sapiens, UniProt O60885); test: Inhibition of BRD4 in human PBMC assessed as reduction in LPS-induced IL-6 secretion incubated for 18 to 24 hrs by MSD assay
[2] = molecular target: Bromodomain-containing protein 4 (Homo sapiens, UniProt O60885, Y390A); test: Displacement of Alexa Fluor 647 labelled ligand from recombinant human N-terminal 6His-tagged BRD4-BD1 Y390A mutant (1 to 477 residue) expressed in Escherichia coli incubated for 30 mins by TR-FRET assay
[3] = molecular target: T1, Bromodomain-containing protein 4; test: Inhibition of BRD4 in human whole blood assessed as reduction in LPS-induced IL-6 secretion preincubated for 30 mins followed by LPS stimulation and measured after 24 hrs by MSD assay; type: tissue-based
Cytochrome P450 2C9 = Cytochrome P450 2C9 (Homo sapiens, UniProt P11712)
Sequence of Cytochrome P450 2C9 (P11712 whole entry): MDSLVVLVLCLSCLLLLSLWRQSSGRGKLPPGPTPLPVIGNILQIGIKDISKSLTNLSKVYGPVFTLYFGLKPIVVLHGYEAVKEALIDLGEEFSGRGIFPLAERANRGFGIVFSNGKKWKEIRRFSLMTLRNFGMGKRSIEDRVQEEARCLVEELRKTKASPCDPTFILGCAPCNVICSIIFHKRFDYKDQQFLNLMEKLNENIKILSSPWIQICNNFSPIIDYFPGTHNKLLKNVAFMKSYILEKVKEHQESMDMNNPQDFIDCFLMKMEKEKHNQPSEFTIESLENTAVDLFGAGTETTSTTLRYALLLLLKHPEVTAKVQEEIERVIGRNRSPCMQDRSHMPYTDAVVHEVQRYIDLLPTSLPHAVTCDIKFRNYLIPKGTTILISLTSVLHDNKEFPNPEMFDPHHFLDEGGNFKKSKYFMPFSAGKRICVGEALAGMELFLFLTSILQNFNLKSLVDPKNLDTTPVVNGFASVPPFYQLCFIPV
Description: Inhibition of recombinant human CYP2C9 expressed in Escherichia coli using FCA as substrate incubated for 15 to 60 mins by fluorometric assay

Cytochrome P450 3A4 = Cytochrome P450 3A4 (Homo sapiens, UniProt P08684); test: Inhibition of recombinant human CYP3A4 expressed in Escherichia coli using VG as probe substrate incubated for 15 to 60 mins by fluorometric assay; type: ADME
Sequence of Cytochrome P450 3A4 (P08684 whole entry): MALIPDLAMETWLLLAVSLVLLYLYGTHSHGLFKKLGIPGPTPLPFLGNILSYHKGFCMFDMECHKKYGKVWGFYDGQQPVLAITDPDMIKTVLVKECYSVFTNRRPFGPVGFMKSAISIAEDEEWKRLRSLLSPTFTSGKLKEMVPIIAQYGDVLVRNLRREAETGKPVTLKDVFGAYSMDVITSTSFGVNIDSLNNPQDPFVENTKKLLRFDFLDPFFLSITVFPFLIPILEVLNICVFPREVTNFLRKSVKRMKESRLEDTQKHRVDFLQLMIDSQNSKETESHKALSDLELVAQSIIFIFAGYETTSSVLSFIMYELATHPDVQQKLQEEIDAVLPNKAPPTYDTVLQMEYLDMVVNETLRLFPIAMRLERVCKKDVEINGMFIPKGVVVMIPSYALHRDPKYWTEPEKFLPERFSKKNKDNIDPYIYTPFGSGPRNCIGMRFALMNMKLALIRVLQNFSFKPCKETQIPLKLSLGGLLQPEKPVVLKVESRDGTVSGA

[4] = human, hepatocytes, 2 h, 0.5 µM
[5] = dog, hepatocytes, 2 h, 0.5 µM
[6] = rat, hepatocytes, 2 h, 0.5 µM
physchem = conditions: FaSSIF, pH 6.5
Description: Solubility of the compound in FaSSIF at pH 6.5 measured after 30 mins by HPLC analysis

Row | IC50 [1] | IC50 [2] | Structure (SMILES) | also measured
1 | 158 nM | 31.6 nM | CCc1nc2cnc3cc(-c4c(C)noc4C)c(OC)cc3c2n1Cc1ccccn1 | 
2 | 3160 nM | 1260 nM | COc1cc2c(cc1-c1c(C)noc1C)ncc1[nH]c(=O)n(CC3CCN(C)CC3)c12 | 
3 | 398 nM | 631 nM | COc1cc2c(cc1-c1c(C)noc1C)ncc1[nH]c(=O)n(CC3CC3)c12 | 
4 | 15800 nM | 2000 nM | COc1cc2c(cc1-c1c(C)noc1C)ncc1[nH]c(=O)n(C3CCNCC3)c12 | 
5 | 126 nM | 100 nM | COCC(C)n1c(C2CCOCC2)nc2cnc3cc(-c4c(C)noc4C)c(OC)cc3c21 (racemic) | IC50 [3]: 398 nM
6 | 398 nM | 79.4 nM | COCc1nc2cnc3cc(-c4c(C)noc4C)c(OC)cc3c2n1CC1CCOCC1 | 
7 | 126 nM | 25.1 nM | CCCc1nc2cnc3cc(-c4c(C)noc4C)c(OC)cc3c2n1Cc1ccccn1 | 
8 | 200 nM | 100 nM | COc1cc2c(cc1-c1c(C)noc1C)ncc1[nH]c(=O)n(CC3CCOCC3)c12 | 
9 | 3160 nM | 1260 nM | COc1cc2c(cc1-c1c(C)noc1C)ncc1[nH]c(=O)n(C(C)C)c12 | 
10 | 1580 nM | 631 nM | COCC(C)n1c(=O)[nH]c2cnc3cc(-c4c(C)noc4C)c(OC)cc3c21 (racemic) | 
11 | 398 nM | 63.1 nM | COCc1nc2cnc3cc(-c4c(C)noc4C)c(OC)cc3c2n1Cc1ccccn1 | 
12 | 631 nM | 200 nM | COCc1nc2cnc3cc(-c4c(C)noc4C)c(OC)cc3c2n1C(C)COC (racemic) | 
13 | 158 nM | 39.8 nM | COc1cc2c(cc1-c1c(C)noc1C)ncc1nc(N)n(Cc3ccccn3)c12 | 
14 | 501 nM | 158 nM | COc1cc2c(cc1-c1c(C)noc1C)ncc1[nH]c(=O)n(Cc3ccccn3)c12 | 
15 | 1580 nM | 794 nM | COc1cc2c(cc1-c1c(C)noc1C)ncc1[nH]c(=O)n(CCN(C)C)c12 | 
16 | 100 nM | 31.6 nM | COc1cc2c(cc1-c1c(C)noc1C)ncc1nc(C3CCOCC3)n(C(C)C3CCOCC3)c12 (stereo not drawn) | IC50 [3]: 200 nM
17 | 39.8 nM | 39.8 nM | COc1cc2c(cc1-c1c(C)noc1C)ncc1nc(C)n(Cc3ccccn3)c12 | 
18 | 200 nM | 158 nM | COc1cc2c(cc1-c1c(C)noc1C)ncc1[nH]c(=O)n(C(C)C3CCOCC3)c12 (racemic) | 
19 | 100 nM | 31.6 nM | COCCNc1nc2cnc3cc(-c4c(C)noc4C)c(OC)cc3c2n1Cc1ccccn1 | IC50 (Cytochrome P450 2C9): 31600 nM; IC50 [3]: 398 nM; IC50 (Cytochrome P450 3A4): 15800 nM

The next lines start with the compound.

Row | Structure (SMILES) | IC50 [1] | IC50 [2] | also measured
20 | COc1cc2c(cc1-c1c(C)noc1C)ncc1nc(C3CCOCC3)n(Cc3ccccn3)c12 | 251 nM | 63.1 nM | 
21 | COC[C@H](C)n1c(C2CCOCC2)nc2cnc3cc(-c4c(C)noc4C)c(OC)cc3c21 | 501 nM | 158 nM | IC50 [3]: 316 nM
22 | CCCC(C)n1c(=O)[nH]c2cnc3cc(-c4c(C)noc4C)c(OC)cc3c21 (stereo not drawn) | 126 nM | 126 nM | 
23 | COc1cc2c(cc1-c1c(C)noc1C)ncc1[nH]c(=O)n(CC3CCOC3)c12 (racemic) | 3980 nM | 631 nM | 
24 | COc1cc2c(cc1-c1c(C)noc1C)ncc1nc(N(C)C)n(CC3CCOCC3)c12 | 39.8 nM | 31.6 nM | IC50 (Cytochrome P450 2C9): 1300 nM; IC50 [3]: 251 nM; IC50 (Cytochrome P450 3A4): 10000 nM
25 | COc1cc2c(cc1-c1c(C)noc1C)ncc1[nH]c(=O)n(CC3CCCOC3)c12 (racemic) | 1260 nM | 251 nM | 
26 | CCNC(=O)C[C@@H]1N=C(c2ccc(Cl)cc2)c2cc(OC)ccc2-n2c(C)nnc21 [MOLIBRESIB] |  |  | CLint [4]: < 0.86 mL/min/g liver; CLint [5]: < 1.7 mL/min/g liver; CLint [6]: < 0.86 mL/min/g liver
27 | COc1cc2c(cc1-c1c(C)noc1C)ncc1[nH]c(=O)n(CC(C)C)c12 | 1000 nM | 794 nM | 
28 | COc1cc2c(cc1-c1c(C)noc1C)ncc1[nH]c(=O)n(C3CCOCC3)c12 | 1580 nM | 1580 nM | 
29 | COCCNc1nc2cnc3cc(-c4c(C)noc4C)c(OC)cc3c2n1[C@H](C)c1ccccn1 | 25.1 nM | 12.6 nM | IC50 (Cytochrome P450 2C9): 7900 nM; IC50 [3]: 158 nM; IC50 (Cytochrome P450 3A4): 7900 nM
30 | COc1cc2c(cc1-c1c(C)noc1C)ncc1nc(C3CCOCC3)n(CC3CC3)c12 | 316 nM | 126 nM | IC50 [3]: 2000 nM
31 | COc1cc2c(cc1-c1c(C)noc1C)ncc1[nH]c(=O)n([C@H](C)c3ccccn3)c12 |  |  | solubility at 0.5 h (physchem): 66 µg/mL (≈ 159 µM); CLint [4]: < 0.86 mL/min/g liver; CLint [5]: 9.8 mL/min/g liver; CLint [6]: < 0.86 mL/min/g liver
32 | COc1cc2c(cc1-c1c(C)noc1C)ncc1nc(C(C)C)n(Cc3ccccn3)c12 | 158 nM | 39.8 nM | 
33 | COc1cc2c(cc1-c1c(C)noc1C)ncc1nc(N3CCOCC3)n(CC3CCOCC3)c12 | 25.1 nM | 39.8 nM | IC50 [3]: 251 nM
